Test results reported in ChEMBL document CHEMBL5303573, “Mapping human microbiome drug metabolism by gut bacteria and their genes” (Nature, 2019).

Experiments:
[1] = The drug is tested on Eggerthella lenta strain: ATCC25559 for biotransformation. The drug concentrations were measured before and after a 12-h incubation by liquid-chromatography-coupled mass spectrometry (LC–MS); conditions: 2 µM
[2] = The drug is tested on Eubacterium ventriosum strain: ATCC27560 for biotransformation. The drug concentrations were measured before and after a 12-h incubation by liquid-chromatography-coupled mass spectrometry (LC–MS); type: ADME; parameters: dose 2 uM, timepoint 0 vs 12 hours; conditions: 2 µM
[3] = victivallis vadensis, 12 h, 2 µM
Description: The drug is tested on Victivallis vadensis strain: ATCC BAA-548 for biotransformation. The drug concentrations were measured before and after a 12-h incubation by liquid-chromatography-coupled mass spectrometry (LC–MS)

[4] = The drug is tested on Eubacterium hallii strain: DSM3353 for biotransformation. The drug concentrations were measured before and after a 12-h incubation by liquid-chromatography-coupled mass spectrometry (LC–MS); conditions: anaerobutyricum hallii, 2 µM
[5] = The drug is tested on Enterococcus faecalis strain: V583 for biotransformation. The drug concentrations were measured before and after a 12-h incubation by liquid-chromatography-coupled mass spectrometry (LC–MS); conditions: 2 µM
[6] = The drug is tested on Clostridium asparagiforme strain: DSM15981 for biotransformation. The drug concentrations were measured before and after a 12-h incubation by liquid-chromatography-coupled mass spectrometry (LC–MS); type: ADME; parameters: dose 2 uM, timepoint 0 vs 12 hours; conditions: enterocloster asparagiformis, 2 µM
[7] = (§1) The drug is tested on the gut metagenome community of MV24 with ENA study accession number: PRJEB31790 and ENA sample accession number: SAMEA5537505 for biotransformation. The drug concentrations were measured over 9 timepoints collected between 0 and 24 hours of incubation by liquid-chromatography-coupled mass spectrometry (LC–MS); type: ADME; parameters: dose 2 uM, timepoint 0, 1, 2, 4, 6, 8, 12, 18, 24 hours; conditions: 2 µM
[8] = as §1, with “MV01” for “MV24”, “SAMEA5537482” for “SAMEA5537505”; type: ADME; parameters: dose 2 uM, timepoint 0, 1, 2, 4, 6, 8, 12, 18, 24 hours; conditions: 2 µM
[9] = as §1, with “MV02” for “MV24”, “SAMEA5537483” for “SAMEA5537505”; type: ADME; parameters: dose 2 uM, timepoint 0, 1, 2, 4, 6, 8, 12, 18, 24 hours; conditions: 2 µM
[10] = as §1, with “MV15” for “MV24”, “SAMEA5537496” for “SAMEA5537505”; type: ADME; parameters: dose 2 uM, timepoint 0, 1, 2, 4, 6, 8, 12, 18, 24 hours; conditions: 2 µM
[11] = as §1, with “MV08” for “MV24”, “SAMEA5537489” for “SAMEA5537505”; type: ADME; parameters: dose 2 uM, timepoint 0, 1, 2, 4, 6, 8, 12, 18, 24 hours; conditions: 2 µM
[12] = as §1, with “MV19” for “MV24”, “SAMEA5537500” for “SAMEA5537505”; type: ADME; parameters: dose 2 uM, timepoint 0, 1, 2, 4, 6, 8, 12, 18, 24 hours; conditions: 2 µM
[13] = as §1, with “MV23” for “MV24”, “SAMEA5537504” for “SAMEA5537505”; type: ADME; parameters: dose 2 uM, timepoint 0, 1, 2, 4, 6, 8, 12, 18, 24 hours; conditions: 2 µM
[14] = as §1, with “MV14” for “MV24”, “SAMEA5537495” for “SAMEA5537505”; type: ADME; parameters: dose 2 uM, timepoint 0, 1, 2, 4, 6, 8, 12, 18, 24 hours; conditions: 2 µM
[15] = as §1, with “MV28” for “MV24”, “SAMEA5537509” for “SAMEA5537505”; type: ADME; parameters: dose 2 uM, timepoint 0, 1, 2, 4, 6, 8, 12, 18, 24 hours; conditions: 2 µM
[16] = as §1, with “MV05” for “MV24”, “SAMEA5537486” for “SAMEA5537505”; type: ADME; parameters: dose 2 uM, timepoint 0, 1, 2, 4, 6, 8, 12, 18, 24 hours; conditions: 2 µM
[17] = as §1, with “MV13” for “MV24”, “SAMEA5537494” for “SAMEA5537505”; type: ADME; parameters: dose 2 uM, timepoint 0, 1, 2, 4, 6, 8, 12, 18, 24 hours; conditions: 2 µM
[18] = The drug is tested on Clostridium spiroforme strain: DSM1552 for biotransformation. The drug concentrations were measured before and after a 12-h incubation by liquid-chromatography-coupled mass spectrometry (LC–MS); conditions: thomasclavelia spiroformis, 2 µM
[19] = The drug is tested on Clostridium hathewayi strain: DSM13479 for biotransformation. The drug concentrations were measured before and after a 12-h incubation by liquid-chromatography-coupled mass spectrometry (LC–MS); conditions: hungatella hathewayi, 2 µM
[20] = The drug is tested on Salmonella typhimurium strain: LT2 for biotransformation. The drug concentrations were measured before and after a 12-h incubation by liquid-chromatography-coupled mass spectrometry (LC–MS); conditions: salmonella enterica subsp. enterica, 2 µM

| SMILES | Bacterial Biotransformation [1] | Bacterial Biotransformation [2] | Bacterial Biotransformation [3] | Bacterial Biotransformation [4] | Bacterial Biotransformation [5] | Bacterial Biotransformation [6] | further results |
| --- | --- | --- | --- | --- | --- | --- | --- |
| CCCCC(=O)N(Cc1ccc(-c2ccccc2-c2nnn[nH]2)cc1)[C@H](C(=O)O)C(C)C | Compound NOT metabolized | Compound NOT metabolized | Compound NOT metabolized | Compound NOT metabolized | Compound NOT metabolized |  |  |
| COc1ccc(/C=C/C(=O)Nc2ccccc2C(=O)O)cc1OC |  |  | Compound NOT metabolized | Compound NOT metabolized | Compound NOT metabolized |  |  |
| CCCCC(=O)O[C@]1(C(=O)CO)[C@@H](C)C[C@H]2[C@@H]3CCC4=CC(=O)C=C[C@]4(C)[C@@]3(F)[C@@H](O)C[C@@]21C [BETAMETHASONE VALERATE] | Compound metabolized |  | Compound metabolized |  | Compound NOT metabolized | Compound NOT metabolized |  |
| C[C@@H]1C[C@H]2[C@@H]3CCC4=CC(=O)C=C[C@]4(C)[C@@]3(F)[C@@H](O)C[C@]2(C)[C@@]1(O)C(=O)CO [DEXAMETHASONE] | Compound NOT metabolized |  | Compound NOT metabolized | Compound NOT metabolized | Compound NOT metabolized | Compound NOT metabolized | Bacterial Biotransformation [7]: Compound metabolized; Bacterial Biotransformation [8]: Compound NOT metabolized; Bacterial Biotransformation [9]: Compound NOT metabolized; Bacterial Biotransformation [10]: Compound NOT metabolized; Bacterial Biotransformation [11]: Compound NOT metabolized; Bacterial Biotransformation [12]: Compound NOT metabolized; Bacterial Biotransformation [13]: Compound NOT metabolized; Bacterial Biotransformation [14]: Compound NOT metabolized; Bacterial Biotransformation [15]: Compound NOT metabolized; Bacterial Biotransformation [16]: Compound NOT metabolized; Bacterial Biotransformation [17]: Compound NOT metabolized |
| CN(C)C(=O)C(CCN1CCC(O)(c2ccc(Cl)cc2)CC1)(c1ccccc1)c1ccccc1 [LOPERAMIDE] | Compound NOT metabolized | Compound NOT metabolized | Compound NOT metabolized | Compound NOT metabolized | Compound NOT metabolized | Compound NOT metabolized |  |
| CCCCc1nc(Cl)c(CO)n1Cc1ccc(-c2ccccc2-c2nn[nH]n2)cc1 [LOSARTAN] | Compound NOT metabolized | Compound NOT metabolized | Compound NOT metabolized | Compound NOT metabolized | Compound NOT metabolized |  |  |
| OC(c1cc(C(F)(F)F)nc2c(C(F)(F)F)cccc12)C1CCCCN1 (stereo not drawn) [MEFLOQUINE] | Compound metabolized | Compound NOT metabolized |  | Compound NOT metabolized | Compound NOT metabolized | Compound NOT metabolized |  |
| CC12CC3CC(C)(C1)CC(N)(C3)C2 [MEMANTINE] | Compound NOT metabolized |  |  | Compound NOT metabolized | Compound NOT metabolized | Compound NOT metabolized |  |
| Cc1cc(C)cc(OCC2CNC(=O)O2)c1 (stereo not drawn) [METAXALONE] | Compound NOT metabolized | Compound NOT metabolized |  | Compound NOT metabolized | Compound NOT metabolized |  |  |
| COc1c2occc2cc2ccc(=O)oc12 [METHOXSALEN] |  | Compound NOT metabolized |  | Compound metabolized | Compound NOT metabolized | Compound metabolized | Bacterial Biotransformation [18]: Compound NOT metabolized; Bacterial Biotransformation [19]: Compound metabolized |
| COC(=O)C(c1ccccc1)C1CCCCN1 (stereo not drawn) [METHYLPHENIDATE] | Compound metabolized | Compound NOT metabolized |  | Compound NOT metabolized | Compound NOT metabolized |  | Bacterial Biotransformation [20]: Compound NOT metabolized |
